Experimental data published in paper PMC10648541, “Design, Synthesis, and Antiproliferative Activity of Selective Histone Deacetylases 6 Inhibitors Containing a Tetrahydropyridopyrimidine Scaffold” (Molecules, 2023).

Assays:
[1] = system: MDA-MB-231/ATCC; assay: NCI-60 antiproliferative screening, MDA-MB-231/ATCC; type: cell-based; conditions: Homo sapiens, MDA-MB-231/ATCC (Breast Cancer), read-out: Inhibition% values at 10 μM concentration
Description: (§1) Then, 8f was submitted to NCI for antiproliferative evaluation against 59 different tumor cell lines. The cancer types of the NCI-60 program include leukemia, non-small cell lung cancer (NSCLC), colon cancer, CNS cancer, melanoma, ovary cancer, renal cancer, prostate cancer, and breast cancer.

[2] = system: COLO 205; assay: NCI-60 antiproliferative screening, COLO 205; type: cell-based; conditions: Homo sapiens, COLO 205 (Colon Cancer), read-out: Inhibition% values at 10 μM concentration
Description: as §1

[3] = system: LOX IMVI; assay: NCI-60 antiproliferative screening, LOX IMVI; type: cell-based; conditions: Homo sapiens, LOX IMVI (Melanoma), read-out: Inhibition% values at 10 μM concentration
Description: as §1

[4] = system: HOP-62; assay: NCI-60 antiproliferative screening, HOP-62; type: cell-based; conditions: Homo sapiens, HOP-62 (Non-Small Cell Lung Cancer), read-out: Inhibition% values at 10 μM concentration
Description: as §1

[5] = system: SK-MEL-5; assay: NCI-60 antiproliferative screening, SK-MEL-5; type: cell-based; conditions: Homo sapiens, SK-MEL-5 (Melanoma), read-out: Inhibition% values at 10 μM concentration
Description: as §1

[6] = molecular target: T1, HDAC6 (Homo sapiens, UniProt Q9UBN7); assay: In vitro HDAC enzyme assay (Reaction Biology Corporation), HDAC6; type: biochemical
T1 construct: purchased Reaction Biology Corporation
T1 sequence (Q9UBN7 1-1215): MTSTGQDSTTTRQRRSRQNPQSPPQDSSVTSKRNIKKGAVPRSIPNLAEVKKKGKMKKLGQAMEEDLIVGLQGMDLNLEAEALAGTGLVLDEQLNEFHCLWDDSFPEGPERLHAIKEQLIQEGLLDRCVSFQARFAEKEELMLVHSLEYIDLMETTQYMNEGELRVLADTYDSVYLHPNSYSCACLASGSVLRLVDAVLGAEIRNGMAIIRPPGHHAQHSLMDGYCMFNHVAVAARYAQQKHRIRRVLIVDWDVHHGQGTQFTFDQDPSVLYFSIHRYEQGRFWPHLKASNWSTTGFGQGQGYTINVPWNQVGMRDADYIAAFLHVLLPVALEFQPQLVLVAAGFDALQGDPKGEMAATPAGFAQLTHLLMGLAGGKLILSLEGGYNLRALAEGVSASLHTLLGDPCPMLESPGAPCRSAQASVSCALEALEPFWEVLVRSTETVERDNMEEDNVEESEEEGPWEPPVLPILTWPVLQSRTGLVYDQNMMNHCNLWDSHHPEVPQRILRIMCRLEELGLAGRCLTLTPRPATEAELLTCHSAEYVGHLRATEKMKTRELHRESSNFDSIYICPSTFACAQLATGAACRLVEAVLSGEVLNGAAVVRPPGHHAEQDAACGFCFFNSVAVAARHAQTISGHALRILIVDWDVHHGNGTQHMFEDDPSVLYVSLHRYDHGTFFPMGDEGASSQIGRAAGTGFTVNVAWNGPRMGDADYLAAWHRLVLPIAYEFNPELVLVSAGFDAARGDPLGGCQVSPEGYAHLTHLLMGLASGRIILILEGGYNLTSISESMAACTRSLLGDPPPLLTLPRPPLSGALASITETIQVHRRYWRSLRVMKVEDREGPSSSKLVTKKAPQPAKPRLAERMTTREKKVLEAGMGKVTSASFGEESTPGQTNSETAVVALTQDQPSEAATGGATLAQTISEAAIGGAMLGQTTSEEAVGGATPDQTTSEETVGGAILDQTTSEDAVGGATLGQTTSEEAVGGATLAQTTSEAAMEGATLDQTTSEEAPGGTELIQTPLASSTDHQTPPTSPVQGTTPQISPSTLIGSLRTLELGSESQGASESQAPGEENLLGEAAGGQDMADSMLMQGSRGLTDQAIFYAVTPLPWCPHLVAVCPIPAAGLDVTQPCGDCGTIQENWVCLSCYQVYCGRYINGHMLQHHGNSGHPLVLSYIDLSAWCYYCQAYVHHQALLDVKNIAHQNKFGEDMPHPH

[7] = system: HOP-92; assay: NCI-60 antiproliferative screening, HOP-92; type: cell-based; conditions: Homo sapiens, HOP-92 (Non-Small Cell Lung Cancer), read-out: Inhibition% values at 10 μM concentration
Description: as §1

[8] = system: K-562; assay: NCI-60 antiproliferative screening, K-562; type: cell-based; conditions: Homo sapiens, K562, K-562 (Leukemia), read-out: Inhibition% values at 10 μM concentration
Description: as §1

[9] = system: RPMI-8226; assay: NCI-60 antiproliferative screening, RPMI-8226; type: cell-based; conditions: Homo sapiens, RPMI-8226 (Leukemia), read-out: Inhibition% values at 10 μM concentration
Description: as §1

[10] = system: acetylated histone 3 (H3); assay: Western blot, acetylated histone 3 in RPMI-8226 cells; type: cell-based, human; conditions: 24 h, 1, 5, and 10 μM
Description: RPMI-8226 cells (1 × 10^6) were seeded overnight and incubated with compound 8f for 24 h on indicated concentrations. Cell extract was prepared by lysing cultured cells with a mammalian protein extraction reagent supplemented with EDTA-free protease inhibitor for 15 min. SDS-PAGE and immunoblot analysis were conducted as described. Antibodies for Ac-H3 (abcom, AB32129) and Ac-ɑ-tubulin (Cell Signaling, 2144) were used.

[11] = system: CAKI-1; assay: NCI-60 antiproliferative screening, CAKI-1; type: cell-based; conditions: Homo sapiens, CAKI-1 (Renal Cancer), read-out: Inhibition% values at 10 μM concentration
Description: as §1

[12] = system: SR; assay: NCI-60 antiproliferative screening, SR; type: cell-based; conditions: Homo sapiens, SR (Leukemia), read-out: Inhibition% values at 10 μM concentration
Description: as §1

[13] = system: MOLT-4; assay: NCI-60 antiproliferative screening, MOLT-4; type: cell-based; conditions: Homo sapiens, MOLT-4 (Leukemia), read-out: Inhibition% values at 10 μM concentration
Description: as §1

[14] = system: BT-549; assay: NCI-60 antiproliferative screening, BT-549; type: cell-based; conditions: Homo sapiens, BT-549 (Breast Cancer), read-out: Inhibition% values at 10 μM concentration
Description: as §1

[15] = system: IGROV1; assay: NCI-60 antiproliferative screening, IGROV1; type: cell-based; conditions: Homo sapiens, IGROV-1, IGROV1 (Ovarian Cancer), read-out: Inhibition% values at 10 μM concentration
Description: as §1

[16] = system: UACC-257; assay: NCI-60 antiproliferative screening, UACC-257; type: cell-based; conditions: Homo sapiens, read-out: Inhibition% values at 10 μM concentration
Description: as §1

[17] = system: TK-10; assay: NCI-60 antiproliferative screening, TK-10; type: cell-based; conditions: Homo sapiens, TK-10 (Renal Cancer), read-out: Inhibition% values at 10 μM concentration
Description: as §1

[18] = system: MCF7; assay: NCI-60 antiproliferative screening, MCF7; type: cell-based; conditions: Homo sapiens, MCF7 (Breast Cancer), read-out: Inhibition% values at 10 μM concentration
Description: as §1

COc1cccc(-c2nc3c(c(-c4cccc(OC)c4)n2)CCN(C(=O)CCCCCCC(=O)NO)C3)c1 [Compound 8f, 8-(2,4-Bis(3-methoxyphenyl)-5,8-dihydropyrido [3,4-d]pyrimidin-7(6H)-yl)-N-hydroxy-8-oxooctanamide]
inhibition at 10 µM [1]: 100% | inhibition at 10 µM [2]: 100% | inhibition at 10 µM [3]: 100% | inhibition at 10 µM [4]: 99.1% | inhibition at 10 µM [5]: 100% | selectivity over other subtypes ([6]; HDAC6 over other HDAC subtypes): > 48 fold | Selectivity Index ([6]; Table 1, HDAC6 against HDAC1): 48 | IC50 ([6]; Table 1, duplicate, SD < 15%): 6.4 nM | inhibition at 10 µM [7]: 100% | inhibition at 10 µM [8]: 90.2% | inhibition at 10 µM [9]: 88.7% | levels of acetylated histone 3 (H3) [10]: only modest changes | inhibition at 10 µM [11]: 100% | inhibition at 10 µM [12]: 84.3% | inhibition at 10 µM [13]: 87.7% | inhibition at 10 µM [14]: 81.9% | inhibition at 10 µM [15]: 100% | inhibition at 10 µM [16]: 98.7% | inhibition at 10 µM [17]: 100% | inhibition at 10 µM [18]: 92.1%
